In publication PMC9317718 (Molecules, 2022):

How the values were obtained:
in vitro [1] = details: for CLint: microsomes
Text: Km is defined as the characteristic constant of the enzyme, which represent the […] (Vmax). The values of Vmax and Km are based on the nonlinear regression analysis of the Michaelis-Menten equation, V = Vmax × S/(Km + S). The kinetic parameters were adopted through the following parameters: S, Vmax, and V. All of these parameters represented the substrate concentration, the maximum velocity of metabolism, and the velocity of metabolism, respectively. CLint (the different ability of the organism in eliminating the particular chemical substances) is defined as Vmax/Km, which reflected the different ability of the organism in eliminating the particular chemical substances.

CYP1A2 [2] = molecular target: T1, CYP1A2 (Homo sapiens, UniProt P05177); assay: Degradation in single recombinant CYP1A2; assay type: in vitro ADME; details: 5 μM compound, single enzyme CYP1A2; for speed constant k in CYP1A2: t in min; for half-life at 5 μM: human, recombinant CYP1A2, pH 7.4, read-out: t1/2 in CYP1A2
T1 construct: purchased RILD (Research Institute for Liver Diseases Co., Ltd., Shanghai, China)
T1 sequence (P05177 whole entry): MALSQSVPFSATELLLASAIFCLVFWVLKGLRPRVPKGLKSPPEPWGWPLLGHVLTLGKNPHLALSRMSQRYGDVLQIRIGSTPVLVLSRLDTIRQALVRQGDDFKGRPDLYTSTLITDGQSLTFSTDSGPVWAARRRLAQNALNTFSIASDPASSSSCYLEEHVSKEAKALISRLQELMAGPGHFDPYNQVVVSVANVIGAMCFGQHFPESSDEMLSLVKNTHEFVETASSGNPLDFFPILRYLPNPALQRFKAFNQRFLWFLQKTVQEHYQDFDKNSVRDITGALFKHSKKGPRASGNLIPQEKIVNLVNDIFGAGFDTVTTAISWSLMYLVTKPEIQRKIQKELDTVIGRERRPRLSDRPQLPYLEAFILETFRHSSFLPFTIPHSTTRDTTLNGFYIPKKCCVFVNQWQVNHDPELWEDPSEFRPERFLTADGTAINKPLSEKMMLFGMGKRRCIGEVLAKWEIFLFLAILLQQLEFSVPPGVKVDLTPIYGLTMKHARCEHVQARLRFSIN

CYP1A2 [3] = molecular target: T2, CYP1A2 (Homo sapiens, UniProt P05177); assay: Inhibition of CYP1A2 activity in vitro (probe phenacetin); assay type: in vitro ADME; details: compound 0-80 μM; probe phenacetin 0.02 mM
T2 sequence (P05177 2-516): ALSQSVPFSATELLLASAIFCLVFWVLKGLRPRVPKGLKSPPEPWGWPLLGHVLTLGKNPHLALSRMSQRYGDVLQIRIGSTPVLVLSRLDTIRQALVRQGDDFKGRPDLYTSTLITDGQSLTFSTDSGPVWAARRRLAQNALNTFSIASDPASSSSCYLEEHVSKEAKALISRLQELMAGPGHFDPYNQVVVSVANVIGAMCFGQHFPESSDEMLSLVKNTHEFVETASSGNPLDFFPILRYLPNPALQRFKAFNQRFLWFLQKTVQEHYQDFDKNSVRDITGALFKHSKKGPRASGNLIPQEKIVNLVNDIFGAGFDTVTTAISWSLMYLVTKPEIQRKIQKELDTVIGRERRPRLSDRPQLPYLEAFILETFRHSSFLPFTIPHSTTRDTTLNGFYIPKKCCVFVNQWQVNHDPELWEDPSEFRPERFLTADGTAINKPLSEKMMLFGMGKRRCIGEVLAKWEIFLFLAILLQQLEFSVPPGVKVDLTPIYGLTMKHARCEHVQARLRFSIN
Procedure: (§1) The mixed probe substrate consisted of testosterone 0.01 mM for CYP3A4, phenacetin 0.02 mM for CYP1A2, chlorzoxazone 0.02 mM for CYP2E1, and omeprazole 0.01 mM for CYP2C19, respectively. […] Other procedure was accorded to above step of 2.6 “Microsomal incubation conditions”.

CYP2C19 [4] = molecular target: T3, CYP2C19 (Homo sapiens, UniProt P33261); assay: biochemical
Procedure: as §1

CYP2E1 [5] = molecular target: T4, CYP2E1 (Homo sapiens, UniProt P05181); assay: biochemical
Procedure: as §1

CYP2E1 [6] = molecular target: T4, CYP2E1; details: recombinant enzyme, 5 μM, pH 7.4
CYP2C19 [7] = molecular target: T3, CYP2C19; details: recombinant enzyme, 5 μM, pH 7.4
CYP3A4 [8] = details: rat, in vivo
CYP1A2 [9] = molecular target: T5, CYP1A2 (Rattus norvegicus, UniProt P04799); details: in vivo
T5 sequence (P04799 1-513): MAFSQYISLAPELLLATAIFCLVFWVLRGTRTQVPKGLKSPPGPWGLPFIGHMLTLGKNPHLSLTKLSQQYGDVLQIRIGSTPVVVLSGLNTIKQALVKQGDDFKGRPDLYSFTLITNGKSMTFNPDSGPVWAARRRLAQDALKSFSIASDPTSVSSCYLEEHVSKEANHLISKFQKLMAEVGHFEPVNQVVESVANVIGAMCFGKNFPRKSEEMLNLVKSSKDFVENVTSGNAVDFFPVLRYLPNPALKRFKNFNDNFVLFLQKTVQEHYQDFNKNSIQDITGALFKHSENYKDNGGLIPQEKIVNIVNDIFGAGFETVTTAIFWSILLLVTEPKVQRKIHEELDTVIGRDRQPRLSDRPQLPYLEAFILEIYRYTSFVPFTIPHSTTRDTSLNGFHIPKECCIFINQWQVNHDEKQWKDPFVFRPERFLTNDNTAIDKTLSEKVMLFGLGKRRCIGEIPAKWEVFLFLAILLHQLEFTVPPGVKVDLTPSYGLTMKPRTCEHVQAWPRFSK

in vitro [10] = details: male, Sprague-Dawley, rat, microsomes, pH 7.4
in vitro [11] = details: human, microsomes, pH 7.4
CYP2E1 [12] = molecular target: T4, CYP2E1; assay: in vitro; details: recombinant enzyme, pH 7.4
CYP2C19 [13] = molecular target: T3, CYP2C19; assay: in vitro; details: recombinant enzyme, pH 7.4
CYP3A4 [14] = molecular target: T6, CYP3A4 (Homo sapiens, UniProt P08684); assay: in vitro; details: pH 7.4, probe testosterone 0.01 mM
Target sequence in this assay (P08684 2-503): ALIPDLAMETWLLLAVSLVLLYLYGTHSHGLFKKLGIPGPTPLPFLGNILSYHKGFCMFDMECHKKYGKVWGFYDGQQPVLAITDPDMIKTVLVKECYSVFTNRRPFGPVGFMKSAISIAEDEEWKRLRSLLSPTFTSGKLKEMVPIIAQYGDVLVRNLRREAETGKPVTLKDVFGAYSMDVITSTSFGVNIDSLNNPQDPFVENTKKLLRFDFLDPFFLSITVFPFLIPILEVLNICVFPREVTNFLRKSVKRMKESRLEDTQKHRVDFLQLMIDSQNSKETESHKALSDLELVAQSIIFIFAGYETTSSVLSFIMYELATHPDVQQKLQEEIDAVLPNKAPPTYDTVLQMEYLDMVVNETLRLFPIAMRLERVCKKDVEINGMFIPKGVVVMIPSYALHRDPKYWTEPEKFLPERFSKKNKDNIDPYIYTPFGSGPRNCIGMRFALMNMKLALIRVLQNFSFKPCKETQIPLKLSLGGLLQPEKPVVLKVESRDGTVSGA

CYP3A4 [15] = molecular target: T6, CYP3A4; assay: Degradation in single recombinant CYP3A4; assay type: in vitro ADME; set-up: purchased RILD (Research Institute for Liver Diseases Co., Ltd., Shanghai, China); details: 5 μM compound, single enzyme CYP3A4; for speed constant k in CYP3A4: t in min; for half-life at 5 μM: human, recombinant CYP3A4, pH 7.4, read-out: t1/2 in CYP3A4
Target sequence in this assay (P08684 whole entry): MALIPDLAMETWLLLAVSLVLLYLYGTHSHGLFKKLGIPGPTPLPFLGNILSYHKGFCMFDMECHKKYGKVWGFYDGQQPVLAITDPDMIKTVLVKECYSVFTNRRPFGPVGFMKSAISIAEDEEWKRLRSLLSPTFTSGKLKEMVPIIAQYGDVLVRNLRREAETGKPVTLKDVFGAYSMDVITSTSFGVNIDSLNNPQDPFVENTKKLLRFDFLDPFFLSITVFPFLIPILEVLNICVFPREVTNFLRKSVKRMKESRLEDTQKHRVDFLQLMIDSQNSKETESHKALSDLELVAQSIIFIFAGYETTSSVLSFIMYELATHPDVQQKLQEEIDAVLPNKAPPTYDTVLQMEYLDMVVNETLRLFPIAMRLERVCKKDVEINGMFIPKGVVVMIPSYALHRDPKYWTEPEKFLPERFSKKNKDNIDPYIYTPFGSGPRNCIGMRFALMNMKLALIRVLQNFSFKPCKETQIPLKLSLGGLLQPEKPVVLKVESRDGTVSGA

CYP2C19 [16] = details: rat liver after 7-days i.g. treatment, low-, medium- and high-dose groups
Procedure: To investigate the molecular mechanisms in the activity of the CYP enzymes, the level of CYP protein in the liver of rats was examined.
In this study, the grouping and administration methods were as described in the step of “Pharmacokinetic study of the probe substrate in vivo”. On the 8th day, the blood was allowed to drain through the aorta and the liver was excised quickly, […]. The liver tissue was stored at −80 °C until analysis.
Then, a piece of the liver tissue was separately homogenized and lysed in RIPA buffer with 1% proteinase inhibitor phenylmethylsulfonyl fluoride (PMSF). […] The protein levels were quantified by a BCA Assay Kit. The samples were boiled at 100 °C for 10 min. Equal amounts of protein lysates were separated on 10% SDS-polyacrylamide gels by electrophoresis and then transferred onto nitrocellulose membranes. The membranes were blocked in 5% non-fat milk. […] In addition, images were captured using an Odyssey Infra-red Imaging System v3.0.16 (LI-COR Biosciences, Lincoln, NE, USA), and quantified by densitometry scanning using ImageJ Analysis software (National Institutes of Health, Bethesda, MD, USA).

T4 sequence (P05181 whole entry): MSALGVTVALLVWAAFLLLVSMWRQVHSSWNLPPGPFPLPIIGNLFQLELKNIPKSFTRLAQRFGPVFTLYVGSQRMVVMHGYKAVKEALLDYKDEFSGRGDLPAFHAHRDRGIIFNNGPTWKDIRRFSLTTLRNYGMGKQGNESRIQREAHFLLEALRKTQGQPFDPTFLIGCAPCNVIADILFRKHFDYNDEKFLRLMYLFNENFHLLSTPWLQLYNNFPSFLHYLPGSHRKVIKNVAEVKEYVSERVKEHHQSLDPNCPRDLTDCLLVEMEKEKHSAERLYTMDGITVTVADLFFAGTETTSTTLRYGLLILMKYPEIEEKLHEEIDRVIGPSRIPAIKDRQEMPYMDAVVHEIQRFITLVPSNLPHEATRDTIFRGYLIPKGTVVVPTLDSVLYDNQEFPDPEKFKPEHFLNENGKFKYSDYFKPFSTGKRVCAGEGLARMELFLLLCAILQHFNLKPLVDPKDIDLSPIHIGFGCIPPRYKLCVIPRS
T3 sequence (P33261 whole entry): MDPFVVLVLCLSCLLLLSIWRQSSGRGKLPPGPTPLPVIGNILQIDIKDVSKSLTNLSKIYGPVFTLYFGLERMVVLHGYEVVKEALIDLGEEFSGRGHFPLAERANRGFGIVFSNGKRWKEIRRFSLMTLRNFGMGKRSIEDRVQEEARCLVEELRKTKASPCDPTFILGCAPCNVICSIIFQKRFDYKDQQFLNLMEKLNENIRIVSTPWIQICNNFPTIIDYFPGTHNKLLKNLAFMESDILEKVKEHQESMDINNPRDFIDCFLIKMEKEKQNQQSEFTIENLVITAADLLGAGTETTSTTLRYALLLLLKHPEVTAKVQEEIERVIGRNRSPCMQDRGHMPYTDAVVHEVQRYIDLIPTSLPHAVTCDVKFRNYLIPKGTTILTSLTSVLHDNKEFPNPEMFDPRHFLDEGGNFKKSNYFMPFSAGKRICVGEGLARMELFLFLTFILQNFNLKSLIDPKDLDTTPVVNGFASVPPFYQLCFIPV

In the case of `CC(C)=C1C/C=C(\C)CC/C=C(\C)CC1=O` [germacrone], the Km at 15 min (in vitro [1]; Sprague-Dawley, rat, pH 7.4) is reported as 49.6 ± 11.1 µM, the Km at 15 min (in vitro [1]; human) is reported as 44.8 ± 5.47 µM and the CLint (in vitro [1]; human) is reported as 0.3298 mL/min/(mg of Protein). The CLint (in vitro [1]; rat) was 0.2763 mL/min/(mg of Protein), the “speed constant k in CYP1A2” value (CYP1A2 [2]) was 0.008 ± 0.001 and the half-life at 5 μM (CYP1A2 [2]) was 1.44 h. The IC50 (CYP1A2 [3]) was 78.1 µM, the IC50 (CYP2C19 [4]) was 17.8 µM and the IC50 (CYP2E1 [5]) was > 80 µM. The “speed constant k in CYP2E1” value (CYP2E1 [6]) was 0.01 ± 0.0017, the “speed constant k in CYP2C19” value (CYP2C19 [7]) was 0.012 ± 0.0032 and the “metabolic rate of midazolam with increasing dose of compound” value (CYP3A4 [8]) was “increased”. The “metabolic rate of phenacetin with increasing dose of compound” value (CYP1A2 [9]) was “increased”, the half-life (in vitro [10]) was 0.3 h and the half-life (in vitro [11]) was 0.273 h. It also gave a half-life at 5 μM (CYP2E1 [12]) of 1.16 h, a half-life at 5 μM (CYP2C19 [13]) of 0.963 h and an IC50 at 120 min (CYP3A4 [14]) of 3.57 µM. The “speed constant k in CYP3A4” value (CYP3A4 [15]) was 0.019 ± 0.0064 and the half-life at 5 μM (CYP3A4 [15]) was 0.608 h.

In the case of `COc1cc(/C=C/C(=O)CC(=O)/C=C/c2ccc(O)c(OC)c2)ccc1O` [curcumin], the Km at 15 min (in vitro [1]; Sprague-Dawley, rat, pH 7.4) is reported as 48.5 ± 8.27 µM, the Km at 15 min (in vitro [1]; human) is reported as 16.6 ± 4.3 µM and the CLint (in vitro [1]; human) is reported as 0.2435 mL/min/(mg of Protein). The CLint (in vitro [1]; rat) was 0.3226 mL/min/(mg of Protein), the “speed constant k in CYP1A2” value (CYP1A2 [2]) was 0.0023 ± 0.0006 and the half-life at 5 μM (CYP1A2 [2]) was 5.02 h. For the same compound, the IC50 (CYP1A2 [3]) was > 80 µM, the IC50 (CYP2C19 [4]) was 11.9 µM and the IC50 (CYP2E1 [5]) was > 80 µM. The “protein level of CYP2C19 vs control in vivo” value (CYP2C19 [16]) was “decreased”, the “speed constant k in CYP2E1” value (CYP2E1 [6]) was 0.01 ± 0.0024 and the “speed constant k in CYP2C19” value (CYP2C19 [7]) was 0.011 ± 0.0017. For the same compound, the “metabolic rate of midazolam with increasing dose of compound” value (CYP3A4 [8]) was “decreased”, the “metabolic rate of phenacetin with increasing dose of compound” value (CYP1A2 [9]) was “decreased” and the half-life (in vitro [10]) was 0.372 h. The half-life (in vitro [11]) was 2.89 h, the half-life at 5 μM (CYP2E1 [12]) was 1.16 h and the half-life at 5 μM (CYP2C19 [13]) was 1.05 h. For the same compound, the IC50 at 120 min (CYP3A4 [14]) was 24.3 µM, the “speed constant k in CYP3A4” value (CYP3A4 [15]) was 0.018 ± 0.0035 and the half-life at 5 μM (CYP3A4 [15]) was 0.642 h.
